In paper PMC4394546, “Discovery of Benzo[f]indole-4,9-dione Derivatives as New Types of Anti-Inflammatory Agents” (International Journal of Molecular Sciences, 2015):

Key:
NCI-H460 (lung) = experiment: In vitro cytotoxicity against NCI-H460 cells; type: cell-based; details: Homo sapiens, NCI-H460; mean ± standard deviation, three experiments
Description: (§1) These benzo[f]indole-4,9-dione derivatives were evaluated in vitro against a panel of cell lines consisting of MCF7 (breast), NCI-H460 (lung), and SF-268 (CNS) as described previously. […] Results from Table 2 indicated compounds 15 and 16 were cytotoxic and their IC50 against three cancer cells and a normal cell, Detroit 551, were shown in Table 3.

[1] = In vitro cytotoxicity against NCI-H460 cells; type: cell-based; details: human, NCI-H460 lung cancer cells; 4 μg/mL; read-out: Cytotoxicity (% survival rate), NCI-H460
Description: as §1

MCF7 (breast) = experiment: In vitro cytotoxicity against MCF7 cells; type: cell-based; details: Homo sapiens, MCF7; mean ± standard deviation, three experiments
Description: as §1

[2] = In vitro cytotoxicity against MCF7 cells; type: cell-based; details: human, MCF7 breast cancer cells; 4 μg/mL; read-out: Cytotoxicity (% survival rate), MCF7
Description: as §1

SF-268 (CNS) = experiment: In vitro cytotoxicity against SF-268 cells; type: cell-based; details: Homo sapiens, SF-268; mean ± standard deviation, three experiments
Description: as §1

[3] = In vitro cytotoxicity against SF-268 cells; type: cell-based; details: human, SF-268 CNS cancer cells; 4 μg/mL; read-out: Cytotoxicity (% survival rate), SF-268
Description: as §1

Detroit 551 = experiment: In vitro cytotoxicity against normal cell Detroit 551; type: cell-based; details: Homo sapiens, mean ± standard deviation, three experiments
Description: as §1

[4] = test system: LPS-induced PGE2 production; parameters: method as in PMID 22161217; details: read-out: Inhibition of LPS-induced PGE2 production, IC50; cited from earlier work
[5] = test system: LPS-induced Raw 264.7 cells; parameters: method as in PMID 23232148; details: cited from earlier work
[6] = test system: LPS-induced Raw 264.7 cells; parameters: method as in PMID 23232148; details: cited from earlier work; remark: listed apart in the source
K562 cell = test system: K562 cell; parameters: method as in PMID 20591678; details: read-out: IC50 against the growth of K562 cell; cited from earlier work
[7] = test system: fMLF-activated human neutrophils; experiment: Neutrophil elastase release in fMLF-activated human neutrophils; type: cell-based; details: for IC50: Homo sapiens, Neutrophil, fMLF-activated human neutrophils, mean ± SEM (n = 3), read-out: Elastase Release (IC50, concentration necessary for 50% inhibition)
Description: (§2) Blood was taken from healthy human donors (20–30 years old) by venipuncture, using a protocol approved by the institutional review board at Chang Gung Memorial Hospital. Neutrophils were isolated with a standard method of dextran sedimentation prior to centrifugation in a Ficoll Hypaque gradient and hypotonic lysis of erythrocytes.
(§3) Superoxide generation and elastase release were carried out according to the procedures described previously. Neutrophils (6 × 10^5/mL) were equilibrated at 37 °C for 2 min and incubated with compounds for 5 min. Neutrophils were then activated by fMLF (100 nM) in the pretreatment of cytochalasin B (1 μg/mL for superoxide generation and 0.5 μg/mL for elastase release) for 10 min. Superoxide anion production was assayed by monitoring the superoxide dismutase-inhibitable reduction of ferricytochrome c. Elastase release was performed using MeO-Suc-Ala-Ala-Pro-Valp-nitroanilide as the elastase substrate.

[8] = test system: fMLF-activated human neutrophils; experiment: Superoxide anion generation in fMLF-activated human neutrophils (ferricytochrome c reduction); type: cell-based; details: Neutrophil, mean ± SEM (n = 3), read-out: Superoxide Anion (IC50, concentration necessary for 50% inhibition)
Description: as §2, §3

Src (Src family Y416) = experiment: Western analysis of fMLF-induced Src phosphorylation in human neutrophils; type: cell-based; details: fMLF-activated human neutrophils; Figure 2A
Description: as §2
(§4) Neutrophils were pretreated with compounds for 5 min before being stimulated with fMLF at 37 °C. The reaction was stopped by adding 5 × Laemmli’s sample buffer. Proteins derived from whole-cell lysates were separated by SDS-polyacrylamide gel electrophoresis (PAGE) using polyacrylamide gels and blotted onto nitrocellulose membranes. Immunoblotting was performed using the indicated antibodies and horseradish peroxidase (HRP)-conjugated secondary anti-rabbit antibodies (Cell Signaling Technology, Beverly, MA, USA). The immunoreactive bands were visualized by an enhanced chemiluminescence system (Amersham Biosciences, Bucks, UK) and detected by Ultraviolet Product (UVP) imaging system (Upland, CA, USA).

[Ca^2+]i = fMLF-induced intracellular calcium mobilization in human neutrophils (fluo-3 AM); type: cell-based; details: Figure 3
Description: as §2
Neutrophils were loaded with fluo-3 AM (2 μM) at 37 °C for 45 min. Cells were preincubated with compounds for 5 min, and then activated by fMLF (100 nM). The change in fluorescence was monitored using a Hitachi F-4500 spectrofluorometer (Tokyo, Japan). The excitation wavelength was 488 nm, and the emission wavelength was 520 nm.

Akt (S473) = experiment: Western analysis of fMLF-induced Akt phosphorylation in human neutrophils; type: cell-based; details: fMLF-activated human neutrophils; Figure 2B
Description: as §2, §4

human neutrophils = experiment: Cytotoxicity in human neutrophils by lactate dehydrogenase (LDH) release; type: cell-based
From the text: The action mechanisms of 10 in human neutrophils were further investigated. Human neutrophil activations, such as respiratory burst and degranulation, are regulated by Akt and calcium signal pathways. Therefore, calcuim and Akt are considered as therapeutic target for developing anti-inflammatory agents.
as §2

alveolar macrophages [9] = test system: alveolar macrophages; parameters: method as in PMID 10188987; details: cited from earlier work
alveolar macrophages [10] = test system: alveolar macrophages; parameters: method as in PMID 10188987; details: cited from earlier work; remark: listed apart in the source
[11] = test system: superoxide anion generation; parameters: method as in PMID 22510297; details: cited from earlier work

Row | Molecule | IC50 [7] | melting point | IC50 [8] | viability at 4 μg/mL [1] | viability at 4 μg/mL [2] | viability at 4 μg/mL [3] | other results
1 | CC[C@@]1(O)C(=O)OCc2c1cc1n(c2=O)Cc2cc3ccccc3nc2-1 [CPT, camptothecin, reference compound] |  |  |  | 1% | 33% | 25% | IC50 (NCI-H460 (lung)): 0.03 ± 0.003 µM; IC50 (MCF7 (breast)): 0.57 ± 0.03 µM; IC50 (SF-268 (CNS)): 0.19 ± 0.006 µM; IC50 (Detroit 551): 0.99 ± 0.09 µM
2 | COc1ccc(-c2nc3c4ccccc4c4occc4c3[nH]2)cc1 [Compound 2, 2-(4-methoxyphenyl)furo[3',2':3,4]naphtho[1,2-d]imidazole] |  |  |  |  |  |  | IC50 [4]: 0.047 µM
3 | COc1ccc(OC2=CC(=O)C(=O)c3ccccc32)cc1 [Compound 4, 4-(4-methoxyphenoxy)naphthalene-1,2-dione] |  |  |  |  |  |  | Inhibition of TNF-α released [5]: able to inhibit; Inhibition of NO released [6]: able to inhibit
4 | O=C1c2ccccc2/C(=N/O)c2ccoc21 [Compound 5, (Z)-4-(hydroxyimino)naphtho[2,3-b]furan-9(4H)-one] |  |  |  |  |  |  | IC50 (K562 cell): 0.82 µM
5 | Cc1cc2c(n1Cc1ccccc1)C(=O)c1ccccc1C2=O [Compound 9, 1-Benzyl-2-methyl-1H-benzo[f]indole-4,9-dione] | > 30 µM | 139 to 140 °C | 14 ± 4.4 µM | 104% | 105% | 106% | 
6 | CC(=O)c1c2c(n(Cc3ccccc3)c1C)C(=O)c1ccccc1C2=O [Compound 12, 3-Acetyl-1-benzyl-2-methyl-1H-benzo[f]indole-4,9-dione] | > 30 µM | 135 to 136 °C | > 30 µM | 88% | 78% | 115% | 
7 | CC(=NO)c1c2c(n(Cc3ccccc3)c1C)C(=O)c1ccccc1C2=O [Compound 13, 1-Benzyl-3-[1-(hydroxyimino)ethyl]-2-methyl-1H-benzo[f]indole-4,9-dione] | 14.7 ± 2.44 µM | 204 to 205 °C | 10.5 ± 0.52 µM | 111% | 106% | 109% | 
8 | CON=C(C)c1c2c(n(Cc3ccccc3)c1C)C(=O)c1ccccc1C2=O [Compound 14, 1-Benzyl-3-[1-(methoxyimino)ethyl]-2-methyl-1H-benzo[f]indole-4,9-dione] | > 30 µM | 168 to 169 °C | > 30 µM | 108% | 104% | 112% | 
9 | O=c1cc(N2CCOCC2)oc2c(-c3ccccc3)cccc12 [LY294002, reference compound] | 2.21 ± 0.45 µM |  | 1.36 ± 0.33 µM |  |  |  | 
10 | CC1(C)CCC2=C(O1)c1ccccc1C(=O)C2=O [β-LAPA, β-lapachone] |  |  |  |  |  |  | Inhibition of expression of PGE2 (alveolar macrophages [9]): able to inhibit; Inhibition of expression of nitric oxide (NO) (alveolar macrophages [10]): able to inhibit
11 | benzo[a]furo[2,3-c]phenazinecarboxylic acid [Compound 3] |  |  |  |  |  |  | Inhibition of superoxide anion generation [11]: strongly inhibited superoxide anion generation

Continued, in another order:

Row | IC50 [7] | melting point | IC50 [8] | Molecule | viability at 4 μg/mL [1] | viability at 4 μg/mL [2] | viability at 4 μg/mL [3] | other results
12 | > 30 µM | 173 to 174 °C | 16.1 ± 1.87 µM | O=C1c2ccccc2C(=O)c2c1ccn2Cc1ccccc1 [Compound 8, 1-Benzyl-1H-benzo[f]indole-4,9-dione] | 96% | 99% | 103% | 
13 | 2.78 µM | 202 to 203 °C | 2.74 µM | O=C1c2ccccc2/C(=N/O)c2ccn(Cc3ccccc3)c21 [Compound 10, (Z)-1-Benzyl-4-(hydroxyimino)-1H-benzo[f]indol-9(4H)-one] | 110% | 110% | 106% | fMLF-induced phosphorylation of Src (Src family Y416) (Src (Src family Y416)): did not alter; fMLF-induced mobilization of [Ca^2+]i ([Ca^2+]i): inhibited; fMLF-induced phosphorylation of Akt (S473) (Akt (S473)): inhibited; Cytotoxicity in human neutrophils (LDH release) (human neutrophils; 30 μM, data not shown): showed no cytotoxicity effects
14 | > 30 µM | 259 to 260 °C | 7.47 ± 1.39 µM | Cc1cc2c(n1Cc1ccccc1)C(=O)c1ccccc1C2=NO [Compound 11, 1-Benzyl-4-(hydroxyimino)-2-methyl-1H-benzo[f]indol-9(4H)-one] | 110% | 104% | 102% | 
15 |  | 152 to 153 °C |  | CCN(CC)CCNC(=O)c1ccc(/N=C2/c3ccccc3C(=O)c3c2ccn3Cc2ccccc2)cc1 [Compound 15, (Z)-4-(1-benzyl-9-oxo-1H-benzo[f]indol-4(9H)-ylideneamino)-N-[2-(diethylamino)ethyl]benzamide] | 31% | 82% | 120% | IC50 (NCI-H460 (lung)): 3.16 ± 0.13 µM; IC50 (MCF7 (breast)): 4.98 ± 0.15 µM; IC50 (SF-268 (CNS)): 27.4 ± 0.39 µM; Cytotoxicity in human neutrophils (LDH release) (human neutrophils; 3, 10 and 30 μM): showed cytotoxicity effects; IC50 (Detroit 551): 7.68 ± 0.58 µM
16 |  | 138 to 139 °C | 0.52 ± 0.11 µM | CCN(CC)CCNC(=O)c1ccc(/N=C2/c3ccccc3C(=O)c3c2cc(C)n3Cc2ccccc2)cc1 [Compound 16, (Z)-4-(1-benzyl-2-methyl-9-oxo-1H-benzo[f]indol-4(9H)-ylideneamino)-N-[2-(diethylamino)ethyl]benzamide] | 18% | 57% | 106% | Effect of compound alone on elastase release ([7]; human neutrophils, table dash with footnote b = alone induced elastase release): induced NE release of human neutrophils; IC50 (NCI-H460 (lung)): 3.23 ± 0.34 µM; IC50 (MCF7 (breast)): 4.95 ± 0.21 µM; IC50 (SF-268 (CNS)): 25.8 ± 1.66 µM; IC50 (Detroit 551): 4.78 ± 0.57 µM
